Data published in ChEMBL document CHEMBL1201862, “PubChem BioAssay data set” (2004).
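The compound was tested at five concentrations on cells cultured in 96-well plates, with a 48-hour exposure period. GI50 marks 50% less growth.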 Active and inactive are the calls of the source. No stated cut-off is given here; in the data, active = GI50 up to about 1.1 µM and inactive = higher.

What was measured:
Assay in all cases: NCI tumour cell line growth inhibition, 48 h
CCRF-CEM = system: CCRF-CEM
NCI-H226 = system: NCI-H226
SNB-19 = system: SNB-19
HOP-92 = system: HOP-92
EKVX = system: EKVX
SF-268 = system: SF-268
SK-MEL-2 = system: SK-MEL-2
PC-3 = system: PC-3
SK-OV-3 = system: SK-OV-3
OVCAR-4 = system: OVCAR-4
786-0 = system: 786-0
SR = system: SR
MCF7 = system: MCF7
NCI/ADR-RES = system: NCI/ADR-RES
OVCAR-5 = system: OVCAR-5
HOP-62 = system: HOP-62
Hs-578T = system: Hs-578T
NCI-H522 = system: NCI-H522
CAKI-1 = system: CAKI-1
OVCAR-3 = system: OVCAR-3
Malme-3M = system: Malme-3M
MDA-N = system: MDA-N
BT-549 = system: BT-549
ACHN = system: ACHN
HT-29 = system: HT-29
RPMI-8226 = system: RPMI-8226
SN12C = system: SN12C
SF-539 = system: SF-539
SF-295 = system: SF-295
DU-145 = system: DU-145
MDA-MB-231 = system: MDA-MB-231
UO-31 = system: UO-31
MOLT-4 = system: MOLT-4
IGROV-1 = system: IGROV-1
HCT-15 = system: HCT-15
T47D = system: T47D
KM12 = system: KM12
M14 = system: M14
SK-MEL-28 = system: SK-MEL-28
U-251 = system: U-251
HCT-116 = system: HCT-116
NCI-H23 = system: NCI-H23
TK-10 = system: TK-10
COLO 205 = system: COLO 205
UACC-257 = system: UACC-257
SK-MEL-5 = system: SK-MEL-5
A549 = system: A549
UACC-62 = system: UACC-62
OVCAR-8 = system: OVCAR-8
MDA-MB-435 = system: MDA-MB-435
K562 = system: K562
NCI-H460 = system: NCI-H460
RXF 393 = system: RXF 393
LOX IMVI = system: LOX IMVI
SW-620 = system: SW-620
A498 = system: A498
HL-60 = system: HL-60
SNB-75 = system: SNB-75
HCC 2998 = system: HCC 2998

O=C(O)c1ccc(/C=N/N=C2c3ccccc3-c3ccccc32)cc1
GI50 (CCRF-CEM): 44.1 µM (inactive) | GI50 (NCI-H226): 22.4 µM (inactive) | GI50 (SNB-19): 48 µM (inactive) | GI50 (HOP-92): 40.6 µM (inactive) | GI50 (EKVX): > 100 µM (inactive) | GI50 (SF-268): 23.6 µM (inactive) | GI50 (SK-MEL-2): 27.4 µM (inactive) | GI50 (PC-3): 35 µM (inactive) | GI50 (SK-OV-3): 74.3 µM (inactive) | GI50 (OVCAR-4): 35.8 µM (inactive) | GI50 (786-0): > 100 µM (inactive) | GI50 (SR): 30.4 µM (inactive) | GI50 (MCF7): 33.2 µM (inactive) | GI50 (NCI/ADR-RES): > 100 µM (inactive) | GI50 (OVCAR-5): 50.2 µM (inactive) | GI50 (HOP-62): 54.7 µM (inactive) | GI50 (Hs-578T): 13.7 µM (inactive) | GI50 (NCI-H522): 60.7 µM (inactive) | GI50 (CAKI-1): 38.6 µM (inactive) | GI50 (OVCAR-3): 19.6 µM (inactive) | GI50 (Malme-3M): 29 µM (inactive) | GI50 (MDA-N): 50.9 µM (inactive) | GI50 (BT-549): > 100 µM (inactive) | GI50 (ACHN): 48.3 µM (inactive) | GI50 (HT-29): 54.3 µM (inactive) | GI50 (RPMI-8226): 63.7 µM (inactive) | GI50 (SN12C): 31.5 µM (inactive) | GI50 (SF-539): 31 µM (inactive) | GI50 (SF-295): 12.7 µM (inactive) | GI50 (DU-145): > 100 µM (inactive) | GI50 (MDA-MB-231): > 100 µM (inactive) | GI50 (UO-31): 42 µM (inactive) | GI50 (MOLT-4): 38.6 µM (inactive) | GI50 (IGROV-1): 54.8 µM (inactive) | GI50 (HCT-15): 57.1 µM | GI50 (T47D): 64 µM (inactive) | GI50 (KM12): 35.2 µM (inactive) | GI50 (M14): 67.1 µM (inactive) | GI50 (SK-MEL-28): 62.4 µM (inactive) | GI50 (U-251): 37.4 µM (inactive) | GI50 (HCT-116): > 100 µM (inactive) | GI50 (NCI-H23): 53.8 µM (inactive) | GI50 (TK-10): 66.1 µM (inactive) | GI50 (COLO 205): 57.8 µM (inactive) | GI50 (UACC-257): 67.5 µM (inactive) | GI50 (SK-MEL-5): 26.5 µM (inactive) | GI50 (A549): 74 µM (inactive) | GI50 (UACC-62): 61.8 µM (inactive) | GI50 (OVCAR-8): 49.8 µM (inactive) | GI50 (MDA-MB-435): 73.5 µM (inactive) | GI50 (K562): 55.8 µM (inactive) | GI50 (NCI-H460): 41.2 µM (inactive) | GI50 (RXF 393): 89.9 µM (inactive) | GI50 (LOX IMVI): > 100 µM (inactive) | GI50 (SW-620): 36.1 µM (inactive) | GI50 (A498): > 100 µM (inactive) | GI50 (HL-60): 32.9 µM (inactive)

COC(=O)[C@H]1ON2O[C@H](OC3CCCC[C@@H]3c3ccccc3)C[C@@H]3CC[C@H]1[C@@]32C (stereo partly specified)
GI50 (CCRF-CEM): > 100 µM (inactive) | GI50 (NCI-H226): 49.4 µM (inactive) | GI50 (SNB-19): > 100 µM (inactive) | GI50 (HOP-92): 81.7 µM (inactive) | GI50 (EKVX): 92.9 µM (inactive) | GI50 (SF-268): > 100 µM (inactive) | GI50 (SK-MEL-2): 84.5 µM (inactive) | GI50 (PC-3): 47.6 µM (inactive) | GI50 (SK-OV-3): > 100 µM (inactive) | GI50 (OVCAR-4): > 100 µM (inactive) | GI50 (786-0): > 100 µM (inactive) | GI50 (SR): 72.9 µM (inactive) | GI50 (MCF7): 65.6 µM (inactive) | GI50 (NCI/ADR-RES): > 100 µM (inactive) | GI50 (OVCAR-5): > 100 µM (inactive) | GI50 (HOP-62): > 100 µM (inactive) | GI50 (Hs-578T): > 100 µM (inactive) | GI50 (NCI-H522): 45.9 µM (inactive) | GI50 (CAKI-1): > 100 µM (inactive) | GI50 (Malme-3M): > 100 µM (inactive) | GI50 (MDA-N): > 100 µM (inactive) | GI50 (BT-549): > 100 µM (inactive) | GI50 (ACHN): > 100 µM (inactive) | GI50 (HT-29): 51.8 µM (inactive) | GI50 (RPMI-8226): 69.7 µM (inactive) | GI50 (SN12C): 31.6 µM (inactive) | GI50 (SF-295): > 100 µM (inactive) | GI50 (DU-145): > 100 µM (inactive) | GI50 (MDA-MB-231): > 100 µM (inactive) | GI50 (UO-31): 97.3 µM (inactive) | GI50 (MOLT-4): 54.3 µM (inactive) | GI50 (IGROV-1): > 100 µM (inactive) | GI50 (SNB-75): 36.4 µM (inactive) | GI50 (HCT-15): 89.9 µM | GI50 (T47D): 46.5 µM (inactive) | GI50 (KM12): 95.9 µM (inactive) | GI50 (M14): > 100 µM (inactive) | GI50 (SK-MEL-28): > 100 µM (inactive) | GI50 (U-251): 77.6 µM (inactive) | GI50 (HCT-116): 79.1 µM (inactive) | GI50 (NCI-H23): > 100 µM (inactive) | GI50 (HCC 2998): > 100 µM (inactive) | GI50 (TK-10): > 100 µM (inactive) | GI50 (COLO 205): 91.4 µM (inactive) | GI50 (UACC-257): > 100 µM (inactive) | GI50 (SK-MEL-5): 56.4 µM (inactive) | GI50 (A549): 60.3 µM (inactive) | GI50 (UACC-62): > 100 µM (inactive) | GI50 (OVCAR-8): > 100 µM (inactive) | GI50 (MDA-MB-435): > 100 µM (inactive) | GI50 (K562): > 100 µM (inactive) | GI50 (NCI-H460): > 100 µM (inactive) | GI50 (RXF 393): 45.9 µM (inactive) | GI50 (LOX IMVI): > 100 µM (inactive) | GI50 (SW-620): > 100 µM (inactive) | GI50 (A498): > 100 µM (inactive) | GI50 (HL-60): 9.66 µM (inactive)

C=CC(C)(C)n1cc(C2=C(O)C(=O)C(c3cn(C(C)(C)C=C)c4ccccc34)=C(OC(C)=O)C2=O)c2ccccc21
GI50 (CCRF-CEM): 0.435 µM (active) | GI50 (NCI-H226): 1.36 µM (inactive) | GI50 (SNB-19): 1.04 µM (active) | GI50 (HOP-92): 0.598 µM (active) | GI50 (EKVX): 1.11 µM (active) | GI50 (SF-268): 0.655 µM (active) | GI50 (SK-MEL-2): 1.02 µM (active) | GI50 (PC-3): 0.75 µM (active) | GI50 (SK-OV-3): 1.49 µM (inactive) | GI50 (OVCAR-4): 1.32 µM (inactive) | GI50 (786-0): 1.47 µM (inactive) | GI50 (SR): 0.298 µM (active) | GI50 (MCF7): 0.0715 µM (active) | GI50 (NCI/ADR-RES): 1.64 µM (inactive) | GI50 (OVCAR-5): 1.66 µM (inactive) | GI50 (HOP-62): 0.628 µM (active) | GI50 (Hs-578T): 0.646 µM (active) | GI50 (NCI-H522): 1.55 µM (inactive) | GI50 (CAKI-1): 1.08 µM (active) | GI50 (OVCAR-3): 1.04 µM (active) | GI50 (Malme-3M): 1.46 µM (inactive) | GI50 (MDA-N): 0.662 µM (active) | GI50 (BT-549): 0.494 µM (active) | GI50 (ACHN): 1.27 µM (inactive) | GI50 (HT-29): 0.807 µM (active) | GI50 (RPMI-8226): 0.984 µM (active) | GI50 (SN12C): 0.456 µM (active) | GI50 (SF-295): 0.571 µM (active) | GI50 (DU-145): 1.04 µM (active) | GI50 (MDA-MB-231): 1.3 µM (inactive) | GI50 (UO-31): 1.07 µM (active) | GI50 (MOLT-4): 0.475 µM (active) | GI50 (IGROV-1): 0.435 µM (active) | GI50 (SNB-75): 0.419 µM (active) | GI50 (HCT-15): 0.375 µM | GI50 (T47D): 1.68 µM (inactive) | GI50 (KM12): 0.565 µM (active) | GI50 (M14): 1.25 µM (inactive) | GI50 (SK-MEL-28): 1.21 µM (inactive) | GI50 (U-251): 0.426 µM (active) | GI50 (HCT-116): 0.429 µM (active) | GI50 (NCI-H23): 0.692 µM (active) | GI50 (HCC 2998): 0.908 µM (active) | GI50 (COLO 205): 1.67 µM (inactive) | GI50 (UACC-257): 0.64 µM (active) | GI50 (SK-MEL-5): 0.64 µM (active) | GI50 (A549): 0.426 µM (active) | GI50 (UACC-62): 0.571 µM (active) | GI50 (OVCAR-8): 0.632 µM (active) | GI50 (MDA-MB-435): 0.513 µM (active) | GI50 (K562): 0.424 µM (active) | GI50 (NCI-H460): 0.592 µM (active) | GI50 (RXF 393): 0.929 µM (active) | GI50 (LOX IMVI): 0.508 µM (active) | GI50 (SW-620): 1.53 µM (inactive) | GI50 (A498): 0.853 µM (active) | GI50 (HL-60): 0.571 µM (active)
